Data on 1 compound can be found in patent US12285407B2, “Bis-indolylmethane derivatives and uses thereof” (The University of The West Indies, priority 2018, dated 2025).

Data set [1] concerns Klebsiella pneumoniae ATCC 49472. Kind of data set: Broth microdilution MIC of SP-BIMs. It is filed as cell-based. Conditions: ATCC49472, SP-BIM alone, read-out: MIC Klebisella pneumoniae ATCC 49472. In general terms: In broth dilution the organism is exposed to a series of concentrations in liquid medium.
The nature of data set [2]: in vitro. The following applies: human.
Data set [3] concerns sarA, agrA, RNA III, mecA, blaZ and fnbA genes. Kind of data set: Real time gene expression analysis in MRSA cells. Conditions: MRSA cells exposed to SP-BIM 13 only, or SP-BIM 13 in combination with ampicillin; 5 and 10 μg mL^−1.
The subject of data set [4] is reference pathogen strains. Put plainly: Checkerboard synergy study, summary over pathogens. It is filed as cell-based. Conditions: checkerboard with SP-BIM 13.
For data set [5], the system named is Escherichia coli ATCC 35218. Put plainly: Broth microdilution MIC of SP-BIMs. It is filed as cell-based. Conditions: ATCC35218, SP-BIM alone, read-out: MIC Escherichia coli ATCC 35218.
The subject of data set [6] is Corynebacterium diphtheriae ATCC 27010. Put plainly: Broth microdilution MIC of SP-BIMs. The data set is classed as cell-based. Conditions: ATCC27010, SP-BIM alone, read-out: MIC Corynebacterium diphtheriae ATCC 27010.
The subject of data set [7] is Candida albicans ATCC 22972. Kind of data set: Broth microdilution MIC of SP-BIMs. The data set is classed as cell-based. The following applies: ATCC22972, SP-BIM alone, read-out: MIC Candida albicans ATCC 22972.
The test system of data set [8] is α-hemolysin production in Staphylococcus aureus. The data set is classed as cell-based.
The test system of data set [9] is Gram-negative bacteria. Kind of data set: Adjuvant broth microdilution. The data set is classed as cell-based. Conditions: SP-BIM at 50 μg mL^−1. How it is done: To each well, the SP-BIM to be tested was added to a final concentration of 50 μg mL^−1. […] SP-BIMs were assessed as potential adjuvants based on their ability to reduce the MIC of the antibiotic against respective pathogen.

Data set [10] relates to Streptococcus pyogenes ATCC 19615. Kind of data set: Broth microdilution MIC of SP-BIMs. The following applies: ATCC19615, SP-BIM alone, read-out: MIC Streptococcus pyogenes ATCC 19615. The data set is classed as cell-based.

In general, MIC refers to the lowest concentration found to suppress growth. Regarding `Oc1cc(C(c2c[nH]c3ccccc23)c2c[nH]c3ccccc23)cc(O)c1O` [SP-BIM 13, 5-(di(1H-indol-3-yl)methyl)benzene-1,2,3-triol], the MIC in [1] is greater than 250 µg/mL; in [5], greater than 250 µg/mL; in data set [6], greater than 250 µg/mL; in data set [7], 250 µg/mL; in data set [10] it was 125 µg/mL. This compound had a CC50 in [2] of 750 µM. In addition, the “expression of both the downstream and regulator genes” value in data set [3] is on record as “significantly reduced”. The “reduction of most antibiotic MICs” value in data set [4] (Gram-positive and Gram-negative pathogens) is recorded as “reduced by tenfold or more”. Further, the “interaction effect in combinations with trimethoprim” value in [4] was “antagonistic”. Also, in data set [8], the “lysis of RBCs” value was “less than 50%”. Also, the “potentiating activity for Gram-negative bacteria” value in data set [9] was “No potentiating activity was observed”.
